Reference: ChEMBL document CHEMBL1131918, “Quantitative analysis of the kinetics of phospholipase A2 using fast atom bombardment mass spectrometry” (Bioorg Med Chem Lett, 1999)

Assays:
phospholipase A2 = assay: Michaelis -Menten constant against phospholipase A2 was determined; assay type: ADME; conditions: phospholipase A2 enzyme
[1] = Catalytic rate constant against phospholipase A2 was determined; assay type: ADME

## CCCCCCCCCC(=O)OCC(O)COP(=O)([O-])OCC[N+](C)(C)C (centres undefined)
Phospholipase A2
  Km: 2300 µM
[1]
  k cat: 1.03 µM/min/mg

## CCCCCCCCCC(=O)OCC(COP(=O)([O-])OCC[N+](C)(C)C)OC(=O)CCCCCCCCC (centres undefined)
Phospholipase A2
  Km: 2400 µM
[1]
  k cat: 1.06 µM/min/mg
